According to patent US20230172204A1 (BASF SE, priority 2020, published 2023):

How the values were obtained:
[1] = system: Phakopsora pachyrhizi (F129L); experiment: Protective control of soybean rust on soybeans (PHAKPA P2); type: in vivo; settings: for PHAKPA (F129L) Disease level (%) P2 at 16 ppm / PHAKPA (F129L) Disease level (%) P2 at 4 ppm: P2 protective, % diseased leaf area; for % PHAKPA (F129L) Disease level P2 at 4 ppm: protective P2, 4 ppm; for % PHAKPA (F129L) Disease level P2 at 4 ppm / % PHAKPA (F129L) Disease level P2 at 16 ppm: soybean rust F129L; for % PHAKPA (F129L) Disease level P2 at 16 ppm: protective P2, 16 ppm
[2] = system: Phakopsora pachyrhizi (F129L); experiment: Protective control of soybean rust on soybeans (PHAKPA P6); type: in vivo; settings: for PHAKPA (F129L) Disease level (%) P6 at 16 ppm / PHAKPA (F129L) Disease level (%) P6 at 4 ppm: P6 protective, % diseased leaf area; for % PHAKPA (F129L) Disease level P6 at 4 ppm: protective P6, 4 ppm; for % PHAKPA (F129L) Disease level P6 at 4 ppm / % PHAKPA (F129L) Disease level P6 at 16 ppm: soybean rust F129L; for % PHAKPA (F129L) Disease level P6 at 16 ppm: protective P6, 16 ppm

Structure (SMILES) | PHAKPA (F129L) Disease level (%) P2 at 16 ppm [1] | PHAKPA (F129L) Disease level (%) P6 at 16 ppm [2] | % PHAKPA (F129L) Disease level P2 at 4 ppm [1] | % PHAKPA (F129L) Disease level P2 at 16 ppm [1] | % PHAKPA (F129L) Disease level P6 at 4 ppm [2] | % PHAKPA (F129L) Disease level P6 at 16 ppm [2] | PHAKPA (F129L) Disease level (%) P2 at 4 ppm [1] | PHAKPA (F129L) Disease level (%) P6 at 4 ppm [2]
CO/N=C(/C(=O)OC)c1ccccc1CO/N=C(\C)c1cc(Cl)cc(Cl)c1 [reference compound] | 27% | 17% |  |  |  |  |  | 
CCOc1ccccc1/C(C)=N/OCc1c(C)cccc1/C(=N\OC)C(=O)NC [compound 312] |  |  | 100% | 53% |  |  |  | 
CNC(=O)/C(=N/OC)c1cccc(C)c1CO/N=C(\C)c1ccc(C#N)cc1 [Ex. 159] | 0% | 0% | 28% | 2% | 28% | 1% |  | 
CNC(=O)/C(=N/OC)c1cccc(C)c1CO/N=C(\C)c1ccccc1-c1ccccc1 [compound 124] |  |  | 98% | 87% | 92% | 75% |  | 
CNC(=O)/C(=N/OC)c1cccc(C)c1CO/N=C(\C)c1c(F)cc(F)cc1F [compound 170] |  |  | 9% | 0% | 4% | 0% |  | 
CO/N=C(/C(=O)OC)c1cccc(C)c1CO/N=C(\C)c1cc(C(F)(F)F)cc(F)c1F [compound 180] |  |  | 40% | 7% | 5% | 0% |  | 
CNC(=O)/C(=N/OC)c1cccc(C)c1CO/N=C(\C)c1ccccc1OC(C)C [compound 315] |  |  | 100% | 60% |  |  |  | 
C=Cc1ccccc1/C(C)=N/OCc1c(C)cccc1/C(=N\OC)C(=O)NC [compound 211] |  |  | 100% | 43% | 100% | 77% |  | 
CNC(=O)/C(=N/OC)c1cccc(C)c1CO/N=C(\C)c1cccc(/C(=N/OC)C(F)(F)F)c1 [compound 71] |  |  | 2% | 0% | 6% | 0% |  | 
CNC(=O)/C(=N/OC)c1cccc(C)c1CO/N=C(\C)c1ccccc1 [Ex. 31] |  |  | 0% | 0% | 4% | 0% | 0% | 12%
CNC(=O)/C(=N/OC)c1cccc(C)c1CO/N=C(\C(C)=O)c1cccc(C(F)(F)F)c1 [compound 93] |  |  | 83% | 32% | 43% | 37% |  | 
CNC(=O)/C(=N/OC)c1cccc(C)c1CO/N=C(\C)c1ccc(C#N)cc1C(F)(F)F [compound 424] |  |  | 100% | 27% | 97% | 50% |  | 
CNC(=O)/C(=N/OC)c1cccc(C)c1CO/N=C(\C)c1cc(C)cc(Cl)c1 [compound 106] |  |  | 5% | 1% | 32% | 9% |  | 
CO/N=C(/C(=O)OC)c1cccc(C)c1CO/N=C(\C)c1ccccc1CC(F)(F)F [compound 222] |  |  | 100% | 57% | 100% | 93% |  | 
CO/N=C(/C(=O)OC)c1cccc(C)c1CO/N=C(\CC(F)(F)F)c1cccc(C(F)(F)F)c1 [compound 250] |  |  | 90% | 90% | 90% | 80% |  | 
CNC(=O)/C(=N/OC)c1cccc(C)c1CO/N=C(\C)c1cc(Cl)cc(C(F)(F)F)c1 [compound 228] |  |  | 5% | 0% | 22% | 2% |  | 
CNC(=O)/C(=N/OC)c1cccc(C)c1CO/N=C(\C)c1ccc(Cl)c(F)c1CC(F)(F)F [compound 412] |  |  | 47% | 6% | 40% | 6% |  | 
CNC(=O)/C(=N/OC)c1cccc(C)c1CO/N=C(\C)c1ccc(Oc2ccc(Cl)cc2)cc1C(F)(F)F [compound 336] |  |  | 63% | 20% | 50% | 17% |  | 
CO/C=C(/C(=O)OC)c1ccccc1CO/N=C(\C)c1cccc(C(F)(F)F)c1 [reference compound] |  |  |  |  |  |  | 6% | 30%
CNC(=O)/C(=N/OC)c1cccc(C)c1CO/N=C(\C)c1cc(C(F)(F)F)ccc1C(F)(F)F [compound 272] |  |  | 60% | 8% |  |  |  | 
CNC(=O)/C(=N/OC)c1cccc(C)c1CO/N=C(\C)c1ccccc1Oc1ccccc1 [compound 321] |  |  | 100% | 40% |  |  |  | 
CNC(=O)/C(=N/OC)c1cccc(C)c1CO/N=C(\C)c1ccccc1OCOC [compound 314] |  |  | 100% | 40% |  |  |  | 
CNC(=O)/C(=N/OC)c1cccc(C)c1CO/N=C(\OC)c1cccc(C)c1 [drawing 974, reference compound] |  | 45% |  |  |  |  |  | 
CNC(=O)/C(=N/OC)c1cccc(C)c1CO/N=C(\C)c1ccc(CC2COC2)cc1 [compound 83] |  |  | 97% | 73% |  |  |  | 
CO/N=C(/C(=O)OC)c1cccc(C)c1CO/N=C(\OC)c1cccc(C(F)(F)F)c1 [drawing 977, reference compound] |  | 23% |  |  |  |  |  | 
CO/N=C(/C(=O)OC)c1cccc(C)c1CO/N=C(\C)c1ccc(CC2COC2)cc1 [compound 82] |  |  | 87% | 57% |  |  |  | 
CO/N=C(/C(=O)OC)c1cccc(C)c1CO/N=C(\C)c1cccc(OC(F)(F)F)c1 [drawing 936, reference compound] |  |  |  |  |  |  | 17% | 
CNC(=O)/C(=N/OC)c1cccc(C)c1CO/N=C(\C)c1ccc(OC(F)(F)F)cc1Cl [compound 271] |  |  | 5% | 1% |  |  |  | 
CNC(=O)/C(=N/OC)c1cccc(C)c1CO/N=C(\C)c1cc(C(F)(F)F)ccc1C [compound 273] |  |  | 60% | 3% |  |  |  | 
